Results as given in ChEMBL document CHEMBL3091333, “Design, synthesis and biological evaluation of novel 4-anilinoquinazolines with C-6 urea-linked side chains as inhibitors of the epidermal growth factor receptor” (Bioorg Med Chem, 2013).
The source made the active and inactive calls. No cut-off for these calls is given here.

How the values were obtained:
NCI-H1975 = test: Antiproliferative activity against human NCI-H1975 cells expressing EGFR T790M mutant after 72 hrs by SRB assay; type: functional, cell-based; settings: NCI-H1975, 72 h
A-431 = test: Antiproliferative activity against human A431 cells after 72 hrs by SRB assay; type: functional, cell-based; settings: A-431, 72 h
[1] = biological target: Epidermal growth factor receptor (Homo sapiens, UniProt P00533, L858M/T790M); test: Inhibition of EGFR T790M/[…] double mutant (unknown origin) expressed in baculovirus expression system using poly (Glu, Tyr) 4:1 as substrate after 60 mins by ELISA
[2] = biological target: T1, Epidermal growth factor receptor (Homo sapiens, UniProt P00533); test: Inhibition of wild type EGFR (unknown origin) expressed in baculovirus expression system using poly (Glu, Tyr) 4:1 as substrate after 60 mins by ELISA
[3] = biological target: Fibroblast growth factor receptor 1 (Homo sapiens, UniProt P11362); test: Inhibition of FGFR1 (unknown origin) expressed in baculovirus expression system using poly (Glu, Tyr) 4:1 as substrate after 60 mins by ELISA
[4] = biological target: Insulin-like growth factor 1 receptor (Homo sapiens, UniProt P08069); test: Inhibition of IGF1R (unknown origin) expressed in baculovirus expression system using poly (Glu, Tyr) 4:1 as substrate after 60 mins by ELISA
Ephrin type-A receptor 2 = Ephrin type-A receptor 2 (Homo sapiens, UniProt P29317); test: Inhibition of recombinant EPHA2 (unknown origin) using poly (Glu, Tyr) 4:1 as substrate after 60 mins by ELISA
[5] = biological target: Platelet-derived growth factor receptor beta (Homo sapiens, UniProt P09619); test: Inhibition of recombinant PDGFR-beta (unknown origin) using poly (Glu, Tyr) 4:1 as substrate after 60 mins by ELISA
[6] = biological target: Platelet-derived growth factor receptor alpha (Homo sapiens, UniProt P16234); test: Inhibition of recombinant PDGFR-alpha (unknown origin) using poly (Glu, Tyr) 4:1 as substrate after 60 mins by ELISA
[7] = biological target: Mast/stem cell growth factor receptor Kit (Homo sapiens, UniProt P10721); test: Inhibition of recombinant c-Kit (unknown origin) using poly (Glu, Tyr) 4:1 as substrate after 60 mins by ELISA
[8] = biological target: Vascular endothelial growth factor receptor 1 (Homo sapiens, UniProt P17948); test: Inhibition of recombinant FLT-1 (unknown origin) using poly (Glu, Tyr) 4:1 as substrate after 60 mins by ELISA
[9] = biological target: Tyrosine-protein kinase ABL1 (Homo sapiens, UniProt P00519); test: Inhibition of recombinant ABL (unknown origin) using poly (Glu, Tyr) 4:1 as substrate after 60 mins by ELISA
[10] = biological target: Macrophage-stimulating protein receptor (Homo sapiens, UniProt Q04912); test: Inhibition of recombinant RON (unknown origin) using poly (Glu, Tyr) 4:1 as substrate after 60 mins by ELISA
[11] = biological target: Proto-oncogene tyrosine-protein kinase receptor Ret (Homo sapiens, UniProt P07949); test: Inhibition of recombinant RET (unknown origin) using poly (Glu, Tyr) 4:1 as substrate after 60 mins by ELISA
[12] = biological target: Receptor tyrosine-protein kinase erbB-4 (Homo sapiens, UniProt Q15303); test: Inhibition of recombinant ErbB4 (unknown origin) using poly (Glu, Tyr) 4:1 as substrate after 60 mins by ELISA
[13] = biological target: Receptor tyrosine-protein kinase erbB-2 (Homo sapiens, UniProt P04626); test: Inhibition of ErbB2 (unknown origin) expressed in baculovirus expression system using poly (Glu, Tyr) 4:1 as substrate after 60 mins by ELISA
[14] = biological target: T1, Epidermal growth factor receptor; test: Inhibition of EGF-induced EGFR phosphorylation in human A431 cells assessed as decrease in ERK phosphorylation at 0.01 to 10 uM incubated for 1 hr prior to EGF induction measured after 10 mins by Western blotting analysis; type: cell-based; settings: A-431
[15] = biological target: T1, Epidermal growth factor receptor; test: Inhibition of EGF-induced EGFR phosphorylation in human A431 cells assessed as decrease in AKT phosphorylation at 0.01 to 10 uM incubated for 1 hr prior to EGF induction measured after 10 mins by Western blotting analysis; type: cell-based; settings: A-431
[16] = biological target: T1, Epidermal growth factor receptor; test: Inhibition of EGF-induced EGFR phosphorylation in human A431 cells at 0.01 uM incubated for 1 hr prior to EGF induction measured after 10 mins by Western blotting analysis; type: cell-based; settings: A-431
[17] = biological target: T1, Epidermal growth factor receptor; test: Inhibition of EGF-induced EGFR phosphorylation in human A431 cells incubated for 1 hr prior to EGF induction measured after 10 mins by Western blotting analysis; type: cell-based; settings: A-431
[18] = biological target: Vascular endothelial growth factor receptor 2 (Homo sapiens, UniProt P35968); test: Inhibition of KDR (unknown origin) expressed in baculovirus expression system using poly (Glu, Tyr) 4:1 as substrate after 60 mins by ELISA

T1 sequence (P00533 whole entry): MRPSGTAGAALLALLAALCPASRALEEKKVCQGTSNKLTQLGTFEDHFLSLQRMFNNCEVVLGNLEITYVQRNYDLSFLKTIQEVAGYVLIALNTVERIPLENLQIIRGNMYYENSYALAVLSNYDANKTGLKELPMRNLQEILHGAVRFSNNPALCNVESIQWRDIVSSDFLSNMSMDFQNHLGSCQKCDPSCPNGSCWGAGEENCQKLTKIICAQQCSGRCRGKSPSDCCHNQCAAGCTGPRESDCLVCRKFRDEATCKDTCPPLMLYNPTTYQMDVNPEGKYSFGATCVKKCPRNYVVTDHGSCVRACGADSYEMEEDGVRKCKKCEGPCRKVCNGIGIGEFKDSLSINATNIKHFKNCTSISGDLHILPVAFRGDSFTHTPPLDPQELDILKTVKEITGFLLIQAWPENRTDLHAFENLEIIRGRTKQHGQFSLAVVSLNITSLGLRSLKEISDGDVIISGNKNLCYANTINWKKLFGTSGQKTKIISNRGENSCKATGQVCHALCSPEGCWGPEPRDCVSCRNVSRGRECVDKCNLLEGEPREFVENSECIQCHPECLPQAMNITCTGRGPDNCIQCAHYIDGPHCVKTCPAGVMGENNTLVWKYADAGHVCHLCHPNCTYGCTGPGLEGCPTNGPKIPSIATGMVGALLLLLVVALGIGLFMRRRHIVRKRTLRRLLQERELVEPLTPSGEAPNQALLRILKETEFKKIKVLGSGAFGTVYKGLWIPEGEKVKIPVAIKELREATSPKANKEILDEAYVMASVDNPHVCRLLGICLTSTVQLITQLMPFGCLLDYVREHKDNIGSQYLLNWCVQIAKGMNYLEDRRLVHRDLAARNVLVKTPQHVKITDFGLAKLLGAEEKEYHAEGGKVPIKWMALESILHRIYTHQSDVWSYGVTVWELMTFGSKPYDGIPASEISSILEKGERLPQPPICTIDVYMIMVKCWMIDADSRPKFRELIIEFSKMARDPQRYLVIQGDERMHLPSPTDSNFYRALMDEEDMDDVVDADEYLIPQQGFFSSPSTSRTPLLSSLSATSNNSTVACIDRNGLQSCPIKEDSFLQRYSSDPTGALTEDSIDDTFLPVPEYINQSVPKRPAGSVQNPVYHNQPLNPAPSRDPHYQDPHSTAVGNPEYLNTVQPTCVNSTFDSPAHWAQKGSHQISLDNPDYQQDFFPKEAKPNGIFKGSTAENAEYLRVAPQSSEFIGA
Epidermal growth factor receptor (Homo sapiens, UniProt P00533, L858M/T790M), sequence (P00533 25-1210 T790M/L858M limits assumed): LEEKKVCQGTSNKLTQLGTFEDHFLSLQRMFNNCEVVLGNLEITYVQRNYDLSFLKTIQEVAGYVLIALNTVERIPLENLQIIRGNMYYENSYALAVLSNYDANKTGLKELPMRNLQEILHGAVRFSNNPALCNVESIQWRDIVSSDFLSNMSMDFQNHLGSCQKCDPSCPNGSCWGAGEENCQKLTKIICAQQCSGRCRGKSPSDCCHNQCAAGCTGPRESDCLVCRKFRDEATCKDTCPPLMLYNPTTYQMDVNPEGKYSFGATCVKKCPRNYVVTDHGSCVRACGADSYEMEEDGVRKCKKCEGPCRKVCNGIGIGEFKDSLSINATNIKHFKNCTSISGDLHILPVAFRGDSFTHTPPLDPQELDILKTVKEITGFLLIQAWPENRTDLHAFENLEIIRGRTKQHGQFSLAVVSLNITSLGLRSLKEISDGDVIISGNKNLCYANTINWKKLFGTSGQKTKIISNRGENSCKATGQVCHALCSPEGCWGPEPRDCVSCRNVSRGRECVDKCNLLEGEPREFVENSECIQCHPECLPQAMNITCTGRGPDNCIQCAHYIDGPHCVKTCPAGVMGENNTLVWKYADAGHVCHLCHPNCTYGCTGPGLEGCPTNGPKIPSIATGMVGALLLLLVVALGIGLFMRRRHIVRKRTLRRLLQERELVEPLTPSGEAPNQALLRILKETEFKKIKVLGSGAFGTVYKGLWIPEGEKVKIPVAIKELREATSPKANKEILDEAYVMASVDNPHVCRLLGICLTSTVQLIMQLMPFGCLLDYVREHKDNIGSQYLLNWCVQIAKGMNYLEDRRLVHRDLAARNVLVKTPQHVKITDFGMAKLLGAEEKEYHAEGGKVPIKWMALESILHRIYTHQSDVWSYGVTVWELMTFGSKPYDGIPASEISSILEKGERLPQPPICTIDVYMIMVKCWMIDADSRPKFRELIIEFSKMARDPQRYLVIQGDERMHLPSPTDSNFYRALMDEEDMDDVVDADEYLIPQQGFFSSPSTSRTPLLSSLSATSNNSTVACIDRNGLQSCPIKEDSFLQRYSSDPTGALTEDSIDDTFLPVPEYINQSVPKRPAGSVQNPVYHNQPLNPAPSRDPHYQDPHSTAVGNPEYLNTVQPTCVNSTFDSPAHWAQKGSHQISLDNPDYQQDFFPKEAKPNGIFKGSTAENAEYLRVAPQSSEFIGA
Receptor tyrosine-protein kinase erbB-4, sequence (Q15303 whole entry): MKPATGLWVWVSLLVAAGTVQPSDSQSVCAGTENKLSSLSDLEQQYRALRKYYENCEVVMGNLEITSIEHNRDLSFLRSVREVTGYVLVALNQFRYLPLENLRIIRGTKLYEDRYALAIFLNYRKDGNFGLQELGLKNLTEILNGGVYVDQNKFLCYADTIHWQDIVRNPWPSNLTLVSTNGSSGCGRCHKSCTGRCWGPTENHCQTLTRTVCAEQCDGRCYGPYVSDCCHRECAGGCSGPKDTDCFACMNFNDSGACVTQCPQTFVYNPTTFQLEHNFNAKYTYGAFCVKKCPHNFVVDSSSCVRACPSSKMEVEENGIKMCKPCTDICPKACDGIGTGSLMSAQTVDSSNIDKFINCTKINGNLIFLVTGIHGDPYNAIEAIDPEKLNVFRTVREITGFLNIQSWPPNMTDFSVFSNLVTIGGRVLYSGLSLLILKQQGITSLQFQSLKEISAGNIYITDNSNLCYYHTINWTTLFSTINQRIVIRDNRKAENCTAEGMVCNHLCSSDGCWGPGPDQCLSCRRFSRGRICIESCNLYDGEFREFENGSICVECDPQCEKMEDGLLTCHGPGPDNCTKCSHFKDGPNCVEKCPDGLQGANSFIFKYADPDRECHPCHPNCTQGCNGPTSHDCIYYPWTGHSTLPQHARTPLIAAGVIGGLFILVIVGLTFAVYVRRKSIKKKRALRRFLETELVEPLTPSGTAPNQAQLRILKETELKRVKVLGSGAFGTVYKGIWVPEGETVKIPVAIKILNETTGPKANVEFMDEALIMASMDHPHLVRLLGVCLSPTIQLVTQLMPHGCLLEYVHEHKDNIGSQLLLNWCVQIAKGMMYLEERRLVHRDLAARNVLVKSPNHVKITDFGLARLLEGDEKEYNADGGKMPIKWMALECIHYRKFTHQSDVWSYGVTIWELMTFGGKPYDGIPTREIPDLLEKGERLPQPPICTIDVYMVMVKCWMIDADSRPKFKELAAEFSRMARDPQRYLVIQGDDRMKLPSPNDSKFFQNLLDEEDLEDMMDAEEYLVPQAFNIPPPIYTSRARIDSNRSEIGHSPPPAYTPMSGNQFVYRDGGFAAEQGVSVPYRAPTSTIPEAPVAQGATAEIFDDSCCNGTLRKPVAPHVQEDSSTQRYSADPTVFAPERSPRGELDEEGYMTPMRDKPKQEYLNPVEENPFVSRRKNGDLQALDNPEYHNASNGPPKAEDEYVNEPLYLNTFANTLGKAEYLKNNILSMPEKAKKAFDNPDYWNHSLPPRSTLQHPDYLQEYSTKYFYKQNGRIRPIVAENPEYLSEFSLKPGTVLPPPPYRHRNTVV
Proto-oncogene tyrosine-protein kinase receptor Ret, sequence (P07949 whole entry): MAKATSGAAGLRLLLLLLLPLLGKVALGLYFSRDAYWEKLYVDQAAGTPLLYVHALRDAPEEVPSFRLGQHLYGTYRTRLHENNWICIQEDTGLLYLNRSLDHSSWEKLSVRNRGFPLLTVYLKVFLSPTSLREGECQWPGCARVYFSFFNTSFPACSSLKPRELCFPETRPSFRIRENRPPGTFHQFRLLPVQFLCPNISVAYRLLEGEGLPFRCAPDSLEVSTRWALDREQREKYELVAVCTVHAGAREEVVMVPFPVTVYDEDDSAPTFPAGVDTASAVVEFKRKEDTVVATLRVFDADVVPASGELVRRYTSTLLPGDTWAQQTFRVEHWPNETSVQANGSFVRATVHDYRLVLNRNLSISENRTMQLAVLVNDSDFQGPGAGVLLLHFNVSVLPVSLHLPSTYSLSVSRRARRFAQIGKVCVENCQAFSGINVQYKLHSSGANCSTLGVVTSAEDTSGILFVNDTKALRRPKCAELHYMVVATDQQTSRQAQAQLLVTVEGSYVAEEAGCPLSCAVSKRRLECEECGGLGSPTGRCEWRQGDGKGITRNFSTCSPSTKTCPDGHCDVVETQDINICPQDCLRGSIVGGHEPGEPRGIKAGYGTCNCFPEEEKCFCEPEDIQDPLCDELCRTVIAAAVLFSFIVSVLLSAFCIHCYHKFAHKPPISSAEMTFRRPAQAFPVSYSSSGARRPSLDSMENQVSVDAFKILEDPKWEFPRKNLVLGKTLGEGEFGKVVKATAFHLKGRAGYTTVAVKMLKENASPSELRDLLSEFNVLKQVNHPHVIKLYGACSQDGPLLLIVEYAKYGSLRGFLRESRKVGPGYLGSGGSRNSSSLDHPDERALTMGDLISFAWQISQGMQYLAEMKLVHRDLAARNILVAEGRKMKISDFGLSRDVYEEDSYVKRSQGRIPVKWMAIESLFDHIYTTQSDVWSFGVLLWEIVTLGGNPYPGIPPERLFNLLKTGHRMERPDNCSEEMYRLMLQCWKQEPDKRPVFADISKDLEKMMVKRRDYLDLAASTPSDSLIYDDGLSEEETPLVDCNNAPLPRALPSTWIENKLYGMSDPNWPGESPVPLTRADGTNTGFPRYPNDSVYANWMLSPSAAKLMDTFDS

Q: `O=C(NCCO)Nc1cc2c(Nc3ccc(F)c(Cl)c3)ncnc2cc1O[C@H]1CCOC1` was tested. Which IC50 (NCI-H1975) did it give?
A: 17.6 µM

Q: And the IC50 (A-431)?
A: 0.598 µM

Q: `COCCNC(=O)Nc1cc2c(Nc3ccc(F)c(Cl)c3)ncnc2cc1O[C@H]1CCOC1` was tested. Which IC50 (NCI-H1975) did it give?
A: 8.3 µM

Q: What about the IC50 [1] of the same compound?
A: 3.56 µM

Q: And the IC50 [2]?
A: 0.479 µM

Q: What about the IC50 (A-431) of the same compound?
A: 0.387 µM

Q: What does the source list for `O=C(Nc1cc2c(Nc3ccc(F)c(Cl)c3)ncnc2cc1O[C@H]1CCOC1)N1CCC(CCO)CC1`?
A: IC50 (NCI-H1975): 25.3 µM; IC50 [1]: 2.94 µM; IC50 [2]: 0.304 µM; IC50 (A-431): 0.759 µM

Q: For `CN(C)CCN(C)C(=O)Nc1cc2c(Nc3ccc(F)c(Cl)c3)ncnc2cc1O[C@H]1CCOC1`, which IC50 (NCI-H1975) is on record?
A: 8.2 µM

Q: And the IC50 [1]?
A: 0.677 µM

Q: And the IC50 [2]?
A: 0.281 µM

Q: What about the IC50 (A-431) of the same compound?
A: 0.45 µM

Q: Which IC50 (NCI-H1975) does the source give for `COCCCNC(=O)Nc1cc2c(Nc3ccc(F)c(Cl)c3)ncnc2cc1O[C@H]1CCOC1` here?
A: 22.7 µM

Q: And the IC50 [1]?
A: 1.66 µM

Q: What about the IC50 [2] of the same compound?
A: 0.197 µM

Q: What about the IC50 (A-431) of the same compound?
A: 4.1 µM

Q: With `CCN(CC)CCN(C)C(=O)Nc1cc2c(Nc3ccc(F)c(Cl)c3)ncnc2cc1O[C@H]1CCOC1` as the compound, how does the IC50 (NCI-H1975) read?
A: 8.3 µM

Q: What about the IC50 [1] of the same compound?
A: 0.392 µM

Q: What about the IC50 [2] of the same compound?
A: 0.505 µM

Q: And the IC50 (A-431)?
A: 0.481 µM

Q: What does the source list for `CN(C)CCNC(=O)Nc1cc2c(Nc3ccc(F)c(Cl)c3)ncnc2cc1O[C@H]1CCOC1`?
A: IC50 (NCI-H1975): 4.7 µM; IC50 [1]: 2.08 µM; IC50 [2]: 0.635 µM; IC50 (A-431): 0.806 µM

Q: How did the IC50 (NCI-H1975) turn out when `O=C(Nc1cc2c(Nc3ccc(F)c(Cl)c3)ncnc2cc1O[C@H]1CCOC1)N1CCCC(F)(F)C1` was run?
A: 43.2 µM

Q: What about the IC50 [1] of the same compound?
A: 1.89 µM

Q: What about the IC50 [2] of the same compound?
A: 0.884 µM

Q: What about the IC50 (A-431) of the same compound?
A: 0.935 µM

Q: `O=C(Nc1cc2c(Nc3ccc(F)c(Cl)c3)ncnc2cc1O[C@H]1CCOC1)N1CCN(CCO)CC1` was tested. Which IC50 (NCI-H1975) did it give?
A: 18.2 µM

Q: And the IC50 [1]?
A: 4.21 µM

Q: What about the IC50 [2] of the same compound?
A: 0.331 µM

Q: What about the IC50 (A-431) of the same compound?
A: 1.13 µM

Q: For `O=C(Nc1cc2c(Nc3ccc(F)c(Cl)c3)ncnc2cc1O[C@H]1CCOC1)N1CC(O)C1`, which IC50 (NCI-H1975) is on record?
A: 32.2 µM

Q: And the IC50 [1]?
A: 1.42 µM

Q: And the IC50 [2]?
A: 0.543 µM

Q: And the IC50 (A-431)?
A: 1.93 µM

Q: How did the IC50 (NCI-H1975) turn out when `CCN(CC)CCNC(=O)Nc1cc2c(Nc3ccc(F)c(Cl)c3)ncnc2cc1O[C@H]1CCOC1` was run?
A: 5.2 µM

Q: And the IC50 [1]?
A: 2.24 µM

Q: What about the IC50 [2] of the same compound?
A: 0.365 µM

Q: And the IC50 (A-431)?
A: 0.249 µM

Q: What does the source list for `O=C(Nc1cc2c(Nc3ccc(F)c(Cl)c3)ncnc2cc1O[C@H]1CCOC1)N1CCC(F)(F)C1`?
A: IC50 (NCI-H1975): 4.5 µM; IC50 [1]: 3.12 µM; IC50 [2]: 1.58 µM; IC50 (A-431): 1.48 µM

Q: `CCN(CC)CCCNC(=O)Nc1cc2c(Nc3ccc(F)c(Cl)c3)ncnc2cc1O[C@H]1CCOC1` was tested. Which IC50 [3] did it give?
A: > 10 µM

Q: What about the IC50 [4] of the same compound?
A: > 10 µM

Q: What about the IC50 (Ephrin type-A receptor 2) of the same compound?
A: > 10 µM

Q: What about the IC50 [5] of the same compound?
A: > 10 µM

Q: What about the IC50 [6] of the same compound?
A: > 10 µM

Q: And the IC50 [7]?
A: > 10 µM

Q: And the IC50 [8]?
A: > 10 µM

Q: And the IC50 [9]?
A: 0.566 µM

Q: And the IC50 [10]?
A: > 10 µM

Q: What about the IC50 [11] of the same compound?
A: 0.347 µM

Q: And the IC50 [12]?
A: 0.008 µM

Q: And the IC50 [13]?
A: 0.078 µM

Q: What about the IC50 (NCI-H1975) of the same compound?
A: 4.3 µM

Q: What about the IC50 [1] of the same compound?
A: 3.06 µM

Q: What about the inhibition [14] of the same compound?
A: Active

Q: What about the inhibition [15] of the same compound?
A: Active

Q: And the inhibition [16]?
A: Active

Q: And the inhibition [17]?
A: Dose-dependent effect

Q: And the IC50 [2]?
A: 0.032 µM

Q: What about the IC50 (A-431) of the same compound?
A: 0.196 µM

Q: And the IC50 [18]?
A: > 10 µM

Q: With `O=C(Nc1cc2c(Nc3ccc(F)c(Cl)c3)ncnc2cc1O[C@H]1CCOC1)N1CCC2(CC1)OCCO2` as the compound, how does the IC50 (NCI-H1975) read?
A: 32.2 µM

Q: What about the IC50 [1] of the same compound?
A: 5.19 µM

Q: And the IC50 [2]?
A: 1.72 µM

Q: And the IC50 (A-431)?
A: 2.18 µM
